The values below come from article PMC3508294 (Journal of medicinal chemistry, 2012).

One assay relates to calf thymus histone H3. Nature of the assay: SPR binding to immobilized histone H3. To be noted: compounds injected at 50–10000 nM. Background: Surface plasmon resonance follows binding to a sensor surface in real time, without labels.
The next assay deals with PABP1(437–488) (Homo sapiens, UniProt P11940). In words: SPR binding to immobilized PABP1. To be noted: compounds injected at 50–10000 nM.
Assay [1] deals with T1, CARM1/PRMT4 (Mus musculus, UniProt Q9WVG6).
T1 sequence (Q9WVG6 1-608): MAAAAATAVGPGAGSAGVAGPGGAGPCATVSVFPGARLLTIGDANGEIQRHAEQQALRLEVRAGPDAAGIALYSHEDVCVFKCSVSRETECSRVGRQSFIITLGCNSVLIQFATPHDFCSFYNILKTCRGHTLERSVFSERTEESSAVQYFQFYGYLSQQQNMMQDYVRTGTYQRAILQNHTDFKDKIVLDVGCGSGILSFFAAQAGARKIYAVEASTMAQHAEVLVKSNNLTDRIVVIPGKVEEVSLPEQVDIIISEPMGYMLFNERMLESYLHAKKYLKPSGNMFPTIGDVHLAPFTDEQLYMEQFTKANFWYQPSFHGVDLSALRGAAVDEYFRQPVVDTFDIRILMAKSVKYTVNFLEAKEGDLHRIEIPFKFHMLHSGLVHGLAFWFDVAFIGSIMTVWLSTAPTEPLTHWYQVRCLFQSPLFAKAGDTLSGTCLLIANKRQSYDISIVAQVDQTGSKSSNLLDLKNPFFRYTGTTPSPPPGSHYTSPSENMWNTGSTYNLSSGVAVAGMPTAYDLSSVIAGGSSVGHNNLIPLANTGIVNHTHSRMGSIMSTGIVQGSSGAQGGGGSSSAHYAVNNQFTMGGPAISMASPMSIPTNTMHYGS
In words: CARM1 in vitro methylation assay, PABP1 as substrate. The assay is classed as biochemical. The conditions noted are these: 3, 6, 12, 25, 50 and 100 µM.

The target in the next assay is T2, CARM1 (Mus musculus, UniProt Q9WVG6).
T2 sequence (Q9WVG6 1-608): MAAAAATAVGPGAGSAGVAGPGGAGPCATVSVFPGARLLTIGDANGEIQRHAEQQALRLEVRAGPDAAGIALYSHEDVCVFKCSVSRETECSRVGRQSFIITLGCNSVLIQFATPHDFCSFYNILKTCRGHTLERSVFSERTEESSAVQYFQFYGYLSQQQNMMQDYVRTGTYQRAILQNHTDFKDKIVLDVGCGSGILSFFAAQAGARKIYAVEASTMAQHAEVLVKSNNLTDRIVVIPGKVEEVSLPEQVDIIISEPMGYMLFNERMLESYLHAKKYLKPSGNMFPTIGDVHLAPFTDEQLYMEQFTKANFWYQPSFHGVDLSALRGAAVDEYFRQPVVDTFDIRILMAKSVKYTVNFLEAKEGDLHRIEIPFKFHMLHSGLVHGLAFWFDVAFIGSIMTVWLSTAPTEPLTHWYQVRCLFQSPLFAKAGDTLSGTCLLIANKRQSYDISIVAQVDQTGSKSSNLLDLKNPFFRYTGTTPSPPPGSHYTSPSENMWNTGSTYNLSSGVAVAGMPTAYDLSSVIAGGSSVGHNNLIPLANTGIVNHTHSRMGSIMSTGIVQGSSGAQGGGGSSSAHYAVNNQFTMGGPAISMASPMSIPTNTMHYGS
In words: SPR binding to immobilized full length GST-tagged CARM1. The conditions noted are these: for Effect on affinity of substrate (H3 or PABP1) for CARM1/SAH complex: 4 µM compound, 200 µM SAH; for Interaction with immobilized CARM1 (in words): 50–10000 nM, in the presence and in absence of SAH.

For assay [2], the target named is T1, CARM1/PRMT4. In words: CARM1 in vitro methylation assay, histone H3 as substrate. The assay is classed as biochemical. To be noted: 50 µM.
Assay [3] concerns the target human recombinant PRMT1 (hPRMT1) (Homo sapiens, UniProt Q99873). Nature of the assay: PRMT1 in vitro inhibition assay, Npl3 as substrate. To be noted: fixed doses of 10 µM and 50 µM.
In assay [4] the test system is CARM1 (fPABP1 methylation) in HEK293 cells. In words: Cellular methylation assay, Tet-inducible fPABP1 in HEK293 cells. The assay is classed as cell-based, human. The conditions noted are these: HEK293, Tet-induced fPABP1; 50 µM compound; 24 h; anti-methyl-PABP1 immunoblot. (In general: A western blot detects proteins with antibodies after separation by electrophoresis.)

Assay [5] deals with T3, full length GST-tagged CARM1 (UniProt Q9WVG6 1-608).
T3 sequence (looked up): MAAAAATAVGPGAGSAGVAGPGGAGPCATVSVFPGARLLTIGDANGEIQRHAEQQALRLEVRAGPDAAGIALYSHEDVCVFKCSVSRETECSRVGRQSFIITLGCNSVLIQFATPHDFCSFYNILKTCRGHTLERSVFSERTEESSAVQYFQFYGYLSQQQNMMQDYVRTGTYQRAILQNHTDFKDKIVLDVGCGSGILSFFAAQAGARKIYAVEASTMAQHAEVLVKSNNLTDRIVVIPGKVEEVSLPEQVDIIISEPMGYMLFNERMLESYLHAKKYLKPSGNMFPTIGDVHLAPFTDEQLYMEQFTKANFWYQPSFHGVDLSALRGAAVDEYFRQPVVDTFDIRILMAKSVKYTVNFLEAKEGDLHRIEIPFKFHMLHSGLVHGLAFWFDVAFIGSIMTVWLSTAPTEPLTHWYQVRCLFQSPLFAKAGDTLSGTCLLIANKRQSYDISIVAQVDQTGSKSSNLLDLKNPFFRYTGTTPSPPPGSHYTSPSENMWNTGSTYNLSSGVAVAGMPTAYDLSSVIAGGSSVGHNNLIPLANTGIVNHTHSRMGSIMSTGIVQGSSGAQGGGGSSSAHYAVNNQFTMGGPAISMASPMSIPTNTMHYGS
In words: SPR.

Sequence of human recombinant PRMT1 (hPRMT1) (Q99873 whole entry): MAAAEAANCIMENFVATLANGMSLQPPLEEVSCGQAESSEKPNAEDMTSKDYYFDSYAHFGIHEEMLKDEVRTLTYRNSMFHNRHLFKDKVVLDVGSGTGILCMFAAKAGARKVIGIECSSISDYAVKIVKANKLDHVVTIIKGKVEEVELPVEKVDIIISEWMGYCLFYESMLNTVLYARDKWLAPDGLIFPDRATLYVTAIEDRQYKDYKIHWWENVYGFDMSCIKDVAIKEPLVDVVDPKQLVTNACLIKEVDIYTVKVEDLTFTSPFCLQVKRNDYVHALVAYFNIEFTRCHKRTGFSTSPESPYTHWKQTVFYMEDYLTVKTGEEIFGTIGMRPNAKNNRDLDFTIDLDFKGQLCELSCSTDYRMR

As for `CCOC(=O)c1cc2cc(NC(=O)CNC(=O)Nc3ccc([N+](=O)[O-])cc3)ccc2[nH]1` [1k, ethyl 5-(2-(3-(4-nitrophenyl)ureido)acetamido)-1H-indole-2-carboxylate], the “Interaction with immobilized histone H3 (in words)” value in the assay on calf thymus histone H3 is “no interaction”. Also, at PABP1(437–488), the “Interaction with immobilized PABP1(437–488) (in words)” value is on record as “no interaction”. In addition, the “Effect on CARM1 enzyme activity, dose dependence” value on CARM1/PRMT4 [1] was “marked and dose-dependent increase”. In addition, on CARM1, the “Effect on affinity of substrate (H3 or PABP1) for CARM1/SAH complex” value (shortened to “Effect on affinity … for CARM1/SAH complex”) was “affects the affinity” and the “Interaction with immobilized CARM1 (in words)” value is reported as “no interaction”. Further, the “Effect on CARM1-catalyzed H3 methylation (in words)” value on CARM1/PRMT4 [2] is recorded as “marked activation”. The “Inhibition of PRMT1” value in assay [3] is reported as “scarcely active”.

Regarding `CCOC(=O)c1cc2cc(NC(=O)CNC(=O)Nc3ccc(C)cc3)ccc2[nH]1` [3c, ethyl 5-(2-(3-(p-tolyl)ureido)acetamido)-1H-indole-2-carboxylate], the “Interaction with immobilized histone H3 (in words)” value with calf thymus histone H3 is “no interaction”. The “Interaction with immobilized PABP1(437–488) (in words)” value on PABP1(437–488) is on record as “no interaction”. For the same molecule, at CARM1, the “Effect on affinity … for CARM1/SAH complex” value is listed as “significantly affect the affinity” and the “Interaction with immobilized CARM1 (in words)” value is listed as “no interaction”. In addition, in assay [4], the “Methylation of fPABP1 in cells” value was “strongly increase the methylation”.

Take `CCOC(=O)c1cc2cc(NC(=O)CNC(=O)Nc3ccc(C#N)cc3)ccc2[nH]1` [3g, ethyl 5-(2-(3-(4-cyanophenyl)ureido)acetamido)-1H-indole-2-carboxylate]: in the assay with calf thymus histone H3, the “Interaction with immobilized histone H3 (in words)” value was “no interaction”. Moreover, at PABP1(437–488), the “Interaction with immobilized PABP1(437–488) (in words)” value is listed as “no interaction”. For the same molecule, at CARM1, the “Effect on affinity … for CARM1/SAH complex” value is “affects the affinity” and the “Interaction with immobilized CARM1 (in words)” value was “no interaction”. Further, the “Methylation of fPABP1 in cells” value in assay [4] is recorded as “strongly increase the methylation”.

Consider `COC(=O)c1c[nH]c2ccc(NC(=O)CNC(=O)Nc3ccc(OC)cc3)cc12` [4e, methyl 5-(2-(3-(4-methoxyphenyl)ureido)acetamido)-1H-indole-3-carboxylate], for which, in the assay on calf thymus histone H3, the “Interaction with immobilized histone H3 (in words)” value is “no interaction”. The “Interaction with immobilized PABP1(437–488) (in words)” value on PABP1(437–488) was “no interaction”. Further, on CARM1, the “Effect on affinity … for CARM1/SAH complex” value is recorded as “significantly affect the affinity” and the “Interaction with immobilized CARM1 (in words)” value is recorded as “no interaction”.

`O=C(Nc1ccc2c(O)cc(S(=O)(=O)O)cc2c1)Nc1ccc2c(O)cc(S(=O)(=O)O)cc2c1` [AMI-1, reference compound]: on PABP1(437–488), the “Interaction with immobilized PABP1(437–488) (in words)” value is reported as “barely perceptible”.

Consider `O=c1oc2c(O)c(O)cc3c(=O)oc4c(O)c(O)cc1c4c23` [ellagic acid, reference compound], for which the “Interaction with immobilized PABP1(437–488) (in words)” value at PABP1(437–488) is on record as “barely perceptible”.

B1: PABP1(437–488) (domain or fragment, human, UniProt P11940 437-488, looked up)
chain: WTAQGARPHPFQNMPGAIRPAAPRPPFSTMRPASSQVPRVMSTQRVANTSTQ
The term Kd denotes the concentration at which binding is half-saturated. Low values mean higher affinity, high ones lower affinity. B1 had a Kd in assay [5] of 158 nM.
